{
  "source": "patent US10968225B2",
  "about": "“Compounds and compositions for the treatment of cystic fibrosis” (Fondazione Istituto Italiano Di Tecnologia, priority 2017, dated 2021)",
  "note": "Counter-ions that a name gives are not always drawn.",
  "data": [
    {"target": "T1, mutant CFTR (Homo sapiens, UniProt P13569, DEL508-508)", "T1 construct": "expressed in transfected cells", "T1 sequence (P13569 with tags, fused parts or gaps DEL508-508)": "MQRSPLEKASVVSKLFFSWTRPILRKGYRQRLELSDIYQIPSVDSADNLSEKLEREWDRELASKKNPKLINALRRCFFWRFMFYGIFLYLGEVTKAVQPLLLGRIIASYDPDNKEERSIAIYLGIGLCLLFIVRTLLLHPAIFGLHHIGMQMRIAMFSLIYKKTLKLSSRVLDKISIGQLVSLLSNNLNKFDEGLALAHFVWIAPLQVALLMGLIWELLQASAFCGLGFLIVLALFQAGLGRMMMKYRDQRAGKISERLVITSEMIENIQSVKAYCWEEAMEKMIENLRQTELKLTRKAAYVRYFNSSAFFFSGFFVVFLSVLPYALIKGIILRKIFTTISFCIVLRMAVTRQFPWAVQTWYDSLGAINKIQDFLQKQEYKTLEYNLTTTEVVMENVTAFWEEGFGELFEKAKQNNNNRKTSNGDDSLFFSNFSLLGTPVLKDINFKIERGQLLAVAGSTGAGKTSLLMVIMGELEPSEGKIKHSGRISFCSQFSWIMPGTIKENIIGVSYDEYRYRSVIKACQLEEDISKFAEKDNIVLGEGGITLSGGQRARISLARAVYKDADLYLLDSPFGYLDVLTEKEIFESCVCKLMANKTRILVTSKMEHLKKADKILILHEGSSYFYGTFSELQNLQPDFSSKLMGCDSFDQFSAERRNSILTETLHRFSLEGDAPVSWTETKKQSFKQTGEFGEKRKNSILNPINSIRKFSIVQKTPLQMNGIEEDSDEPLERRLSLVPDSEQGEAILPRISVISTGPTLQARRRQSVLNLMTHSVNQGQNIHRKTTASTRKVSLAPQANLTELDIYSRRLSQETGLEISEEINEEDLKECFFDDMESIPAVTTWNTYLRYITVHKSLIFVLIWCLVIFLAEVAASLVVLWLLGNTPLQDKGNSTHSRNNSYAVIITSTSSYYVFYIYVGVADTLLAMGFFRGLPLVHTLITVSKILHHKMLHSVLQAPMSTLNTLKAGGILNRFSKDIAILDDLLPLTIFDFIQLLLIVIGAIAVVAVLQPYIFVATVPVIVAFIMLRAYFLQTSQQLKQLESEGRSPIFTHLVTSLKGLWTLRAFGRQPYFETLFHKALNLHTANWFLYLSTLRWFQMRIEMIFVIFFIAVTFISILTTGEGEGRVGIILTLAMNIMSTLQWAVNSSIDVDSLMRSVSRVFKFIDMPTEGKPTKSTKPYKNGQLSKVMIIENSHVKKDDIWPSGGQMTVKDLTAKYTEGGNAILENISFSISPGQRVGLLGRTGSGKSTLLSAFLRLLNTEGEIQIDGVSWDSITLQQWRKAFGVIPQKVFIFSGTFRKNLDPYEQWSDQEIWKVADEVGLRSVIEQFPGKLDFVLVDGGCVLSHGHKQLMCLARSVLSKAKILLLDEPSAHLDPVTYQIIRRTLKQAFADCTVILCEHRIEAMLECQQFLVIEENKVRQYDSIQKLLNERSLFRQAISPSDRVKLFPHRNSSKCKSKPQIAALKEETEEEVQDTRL", "assay": "Fluorescence (HS-YFP) assay for CFTR activity, corrector assay", "format": "cell-based", "conditions": "CFBE41o- and FRT cells with stable expression of mutant CFTR, read-out: activity (EC50)", "units": {"EC50": "nM"}, "values": [
      {"smiles": "CN(C(=O)c1cccc(-n2nc(C(F)(F)F)c3c2CC2CCC3N2)c1)c1ccc2c(c1)OCO2", "note": "(racemic) [Compound 022, N-(Benzo[d][1,3]dioxol-5-yl)-N-methyl-3-(3-(trifluoromethyl)-5,6,7,8-tetrahydro-4,7-epiminocyclohepta[c]pyrazol-1(4H)-yl)benzamide hydrochloride]", "EC50": "< 1000"},
      {"smiles": "CN(C(=O)c1cccc(-n2nc(C(F)(F)F)c3c2CC2CCC3N2C)c1)c1ccc2c(c1)OCO2", "note": "(racemic) [Compound 023, N-(Benzo[d][1,3]dioxol-5-yl)-N-methyl-3-(9-methyl-3-(trifluoromethyl)-5,6,7,8-tetrahydro-4,7-epiminocyclohepta [c]pyrazol-1(4H)-yl)benzamide]", "EC50": "< 1000"},
      {"smiles": "CCC(C)N1CCc2c(c(C(F)(F)F)nn2-c2cccc(C(=O)N(C)c3ccc4c(c3)OCO4)c2)C1", "note": "(racemic) [Compound 024, N-(1,3-Benzodioxol-5-yl)-N-methyl-3-[5-sec-butyl-3-(trifluoromethyl)-6,7-dihydro-4H-pyrazolo[4,3-c]pyridin-1-yl]benzamide]", "EC50": "< 1000"},
      {"smiles": "CN(C(=O)c1cccc(-n2nc(C(F)(F)F)c3c2C(Oc2cncc(C(=O)O)c2)COC3)c1)c1ccc2c(c1)OC(F)(F)O2", "note": "(racemic) [Compound 210, 5-[[1-[3-[(2,2-Difluoro-1,3-benzodioxol-5-yl)-methyl-carbamoyl]phenyl]-3-(trifluoromethyl)-6,7-dihydro-4H-pyrano[4,3-c]pyrazol-7-yl]oxy]pyridine-3-carboxylic acid]", "EC50": "1000 to 2000"},
      {"smiles": "CN(C(=O)c1cccc(-n2nc(C(F)(F)F)c3c2C(Oc2ccc(C(=O)O)cn2)COC3)c1)c1ccc2c(c1)OC(F)(F)O2", "note": "(racemic) [Compound 213, 6-[[1-[3-[(2,2-Difluoro-1,3-benzodioxol-5-yl)-methyl-carbamoyl]phenyl]-3-(trifluoromethyl)-6,7-dihydro-4H-pyrano[4,3-c]pyrazol-7-yl]oxy]pyridine-3-carboxylic acid]", "EC50": "< 1000"},
      {"smiles": "CN(C(=O)c1cccc(-n2nc(C(F)(F)F)c3c2C(Oc2ccc(C(=O)O)cc2)CCC3)c1)c1cnc(OC(F)F)nc1", "note": "(racemic) [Compound 219, 4-[[1-[3-[[2-(Difluoromethoxy)pyrimidin-5-yl]-methyl-carbamoyl]phenyl]-3-(trifluoromethyl)-4,5,6,7-tetrahydroindazol-7-yl]oxy]benzoic acid]", "EC50": "1000 to 2000"},
      {"smiles": "CN(C(=O)c1cccc(-n2nc(C(F)(F)F)c3c2C(Oc2cc(C(=O)O)ccn2)COC3)c1)c1ccc2c(c1)OC(F)(F)O2", "note": "(racemic) [Compound 231, 2-[[1-[3-[(2,2-Difluoro-1,3-benzodioxol-5-yl)-methyl-carbamoyl]phenyl]-3-(trifluoromethyl)-6,7-dihydro-4H-pyrano[4,3-c]pyrazol-7-yl]oxy]pyridine-4-carboxylic acid]", "EC50": "< 1000"},
      {"smiles": "CN(C(=O)c1cccc(-n2nc(C(F)F)c3c2C(Oc2ccc(C(=O)O)cc2)CCC3)c1)c1ccc2c(c1)OC(F)(F)O2", "note": "(racemic) [Compound 254, (rac)-4-[[1-[3-[(2,2-difluoro-1,3-benzodioxol-5-yl)-methyl-carbamoyl]phenyl]-3-(difluoromethyl)-4,5,6,7-tetrahydroindazol-7-yl]oxy]benzoic acid]", "EC50": "< 1000"},
      {"smiles": "CN(C(=O)c1cccc(-n2nc(C(F)(F)F)c3c2C(Oc2ccc(C(=O)O)cc2)CCC3)c1)c1cnc2c(c1)CCC2", "note": "(racemic) [Compound 258, (rac)-4-[[1-[3-[6,7-dihydro-5H-Cyclopenta[b]pyridin-3-yl(methyl)carbamoyl]phenyl]-3-(trifluoromethyl)-4,5,6,7-tetrahydroindazol-7-yl]oxy]benzoic acid]", "EC50": "< 1000"},
      {"smiles": "CN(C(=O)c1cccc(-n2nc(C(F)(F)F)c3c2C(Oc2ccc(C(=O)O)cc2)CCC3)c1)c1cnc2c(c1)OCC2", "note": "(racemic) [Compound 259, (rac)-4-[[1-[3-[2,3-Dihydrofuro[3,2-b]pyridin-6-yl(methyl)carbamoyl]phenyl]-3-(trifluoromethyl)-4,5,6,7-tetrahydroindazol-7-yl]oxy]benzoic acid]", "EC50": "< 1000"},
      {"smiles": "CN(C(=O)c1cccc(-n2nc(C(F)(F)F)c3c2C(Oc2ccc(C(=O)O)cc2)CCC3)c1)c1cnc2c(c1)COC2", "note": "(racemic) [Compound 260, (rac)-4-[[1-[3-[5,7-Dihydrofuro[3,4-b]pyridin-3-yl(methyl)carbamoyl]phenyl]-3-(trifluoromethyl)-4,5,6,7-tetrahydroindazol-7-yl]oxy]benzoic acid]", "EC50": "1000 to 2000"},
      {"smiles": "CN(C(=O)c1cccc(-n2nc(C(F)(F)F)c3c2C(Oc2ccc(C(=O)O)cc2)CCC3)c1)c1ccc2c(c1)OCC2", "note": "(racemic) [Compound 261, (rac)-4-[[1-[3-[2,3-Dihydrobenzofuran-6-yl(methyl)carbamoyl]phenyl]-3-(trifluoromethyl)-4,5,6,7-tetrahydroindazol-7-yl]oxy]benzoic acid]", "EC50": "< 1000"},
      {"smiles": "CN(C(=O)c1cccc(-n2nc(C(F)(F)F)c3c2C(Oc2ccc(C(=O)O)cc2)COC3)c1)c1cnc2c(c1)OCC2", "note": "(racemic) [Compound 262, 4-[[1-[3-[2,3-Dihydrofuro[3,2-b]pyridin-6-yl(methyl)carbamoyl]phenyl]-3-(trifluoromethyl)-6,7-dihydro-4H-pyrano[4,3-c]pyrazol-7-yl]oxy]benzoic acid]", "EC50": "1000 to 2000"},
      {"smiles": "CN(C(=O)c1cccc(-n2nc(C(F)F)c3c2C(Oc2ccc(C(=O)O)cc2)COC3)c1)c1ccc2c(c1)OC(F)(F)O2", "note": "(racemic) [Compound 263, 4-[[1-[3-[(2,2-difluoro-1,3-benzodioxol-5-yl)-methyl-carbamoyl]phenyl]-3-(difluoromethyl)-6,7-dihydro-4H-pyrano[4,3-c]pyrazol-7-yl]oxy]benzoic acid]", "EC50": "< 1000"},
      {"smiles": "CN(C(=O)c1cccc(-n2nc(C(F)(F)F)c3c2C(Oc2ccc(C(=O)O)cc2)COC3)c1)c1ccc2c(c1)OCC2", "note": "(racemic) [Compound 265, 4-[[1-[3-[2,3-Dihydrobenzofuran-6-yl(methyl)carbamoyl]phenyl]-3-(trifluoromethyl)-6,7-dihydro-4H-pyrano[4,3-c]pyrazol-7-yl]oxy]benzoic acid]", "EC50": "< 1000"},
      {"smiles": "CN(C(=O)c1cccc(-n2nc(C(F)(F)F)c3c2C(Oc2ccc(C(=O)O)cc2)CCC3)c1)c1cccc(OC(F)F)c1", "note": "(racemic) [Compound 266, 4-[[1-[3-[[3-(Difluoromethoxy)phenyl]-methyl-carbamoyl]phenyl]-3-(trifluoromethyl)-4,5,6,7-tetrahydroindazol-7-yl]oxy]benzoic acid]", "EC50": "1000 to 2000"},
      {"smiles": "CN(C(=O)c1cccc(-n2nc(C(F)(F)F)c3c2C(Oc2ccc(C(=O)O)cc2)CCC3)c1)c1cncc(OC(F)F)c1", "note": "(racemic) [Compound 267, 4-[[1-[3-[[5-(Difluoromethoxy)-3-pyridyl]-methyl-carbamoyl]phenyl]-3-(trifluoromethyl)-4,5,6,7-tetrahydroindazol-7-yl]oxy]benzoic acid]", "EC50": "1000 to 2000"},
      {"smiles": "CN(C(=O)c1cccc(-n2nc(C(F)(F)F)c3c2C(Oc2ccc(C(=O)O)cc2)CCC3)c1)c1ccnc(OC(F)F)c1", "note": "(racemic) [Compound 268]", "EC50": "< 1000"},
      {"smiles": "Cc1nc2ncc(N(C)C(=O)c3cccc(-n4nc(C(F)(F)F)c5c4C(Oc4ccc(C(=O)O)cc4)COC5)c3)cc2o1", "note": "(racemic) [Compound 269, 4-[[1-[3-[Methyl-(2-methyloxazolo[4,5-b]pyridin-6-yl)carbamoyl]phenyl]-3-(trifluoromethyl)-6,7-dihydro-4H-pyrano[4,3-c]pyrazol-7-yl]oxy]benzoic acid]", "EC50": "< 1000"},
      {"smiles": "CN(C(=O)c1cccc(-n2nc(C(F)(F)F)c3c2C(Oc2ccc(C(=O)O)cc2)COC3)c1)c1ccnc(OC(F)F)c1", "note": "(racemic) [Compound 270, 4-[[1-[3-[[2-(Difluoromethoxy)-4-pyridyl]-methyl-carbamoyl]phenyl]-3-(trifluoromethyl)-6,7-dihydro-4H-pyrano[4,3-c]pyrazol-7-yl]oxy]benzoic acid]", "EC50": "< 1000"},
      {"smiles": "CN(C(=O)c1cccc(-n2nc(C(F)(F)F)c3c2C(Oc2ccc(C(=O)O)cc2)CNC3)c1)c1ccc2c(c1)OC(F)(F)O2", "note": "(racemic) [Compound 273, 4-[[1-[3-[(2,2-Difluoro-1,3-benzodioxol-5-yl)-methyl-carbamoyl]phenyl]-3-(trifluoromethyl)-4,5,6,7-tetrahydropyrazolo[4,3-c]pyridin-7-yl]oxy]benzoic acid hydrochloride]", "EC50": "< 1000"},
      {"smiles": "CN(C(=O)c1cccc(-n2nc(C(F)(F)F)c3c2C(Oc2ccc(C(=O)O)cc2)COC3)c1)c1cnc2c(c1)CCC2", "note": "(racemic) [Compound 281, 4-[[1-[3-[6,7-Dihydro-5H-cyclopenta[b]pyridin-3-yl(methyl)carbamoyl]phenyl]-3-(trifluoromethyl)-6,7-dihydro-4H-pyrano[4,3-c]pyrazol-7-yl]oxy]benzoic acid]", "EC50": "1000 to 2000"},
      {"smiles": "Cc1cc2ncc(N(C)C(=O)c3cccc(-n4nc(C(F)(F)F)c5c4C(Oc4ccc(C(=O)O)cc4)COC5)c3)cn2n1", "note": "(racemic) [Compound 294, 4-[[1-[3-[Methyl-(2-methylpyrazolo[1,5-a]pyrimidin-6-yl)carbamoyl]phenyl]-3-(trifluoromethyl)-6,7-dihydro-4H-pyrano[4,3-c]pyrazol-7-yl]oxy]benzoic acid]", "EC50": "< 1000"},
      {"smiles": "CN(C(=O)c1cccc(-n2nc(C(F)(F)F)c3c2C(Oc2ncc(C(=O)O)cn2)COC3)c1)c1ccc2c(c1)OC(F)(F)O2", "note": "(racemic) [Compound 295, 2-[[1-[3-[(2,2-Difluoro-1,3-benzodioxol-5-yl)-methyl-carbamoyl]phenyl]-3-(trifluoromethyl)-6,7-dihydro-4H-pyrano[4,3-c]pyrazol-7-yl]oxy]pyrimidine-5-carboxylic acid]", "EC50": "1000 to 2000"},
      {"smiles": "CN(C(=O)c1cccc(-n2nc(C(F)(F)F)c3c2C(Oc2ncc(C(=O)O)cn2)COC3)c1)c1ccc2c(c1)OCC2", "note": "(racemic) [Compound 296, 2-[[1-[3-[2,3-Dihydrobenzofuran-6-yl(methyl)carbamoyl]phenyl]-3-(trifluoromethyl)-6,7-dihydro-4H-pyrano[4,3-c]pyrazol-7-yl]oxy]pyrimidine-5-carboxylic acid]", "EC50": "< 1000"},
      {"smiles": "Cc1nc2ccc(N(C)C(=O)c3cccc(-n4nc(C(F)(F)F)c5c4C(Oc4ncc(C(=O)O)cn4)COC5)c3)cc2o1", "note": "(racemic) [Compound 297]", "EC50": "< 1000"}
    ]}
  ]
}
